# Measured values as given in patent publication US11116748B2, “Compositions and methods for reducing weight gain” (THE MEDICAL COLLEGE OF WISCONSIN, INC., priority 2018, dated 2021).
# Experiments:
# C57bl/6J female mice [1] = assay: Supplementation with L. reuteri (daily gavage) with or without risperidone in drinking water: body mass and visceral fat pads; assay type: in vivo; details: risperidone-treated mice, 64 days, relative to risperidone plus L. reuteri lacking reutericyclin production; Wilcoxon p<0.05
# gut microbiome = details: risperidone; cited from earlier work
# C57bl/6J female mice [2] = assay: Risperidone treatment for 60 days, weight gain in mice; assay type: in vivo; details: risperidone for 60 days, vs control
# Procedure: Shotgun metagenomic sequencing data (MiSeq, 2×250, high yield) from stool DNA were analyzed on the Anvi'o visualization platform. Bacterial genomes were refined to either genus or species level and ordered as slices within a ring by gene similarity (hierarchical clustering with a Hidden Markov Model).
SMILES,weight gain (body mass increase) (C57bl/6J female mice [1]),growth of organisms under anaerobic conditions (gut microbiome),weight gain (C57bl/6J female mice [2])
"CCCCCCC/C=C/C(=O)N1C(O)=C(C(C)=O)C(=O)[C@H]1CC(C)C [reutericyclin, (5R)-1-(2-decenoyl)-2-hydroxy-3-acetyl-5-isobutyl-Δ2-pyrroline-4-one]",prevents weight gain,,
Cc1nc2n(c(=O)c1CCN1CCC(c3noc4cc(F)ccc34)CC1)CCCC2 [risperidone],,selectively suppressed growth of organisms under anaerobic conditions,statistically significant weight gain
